Results from publication PMC10745926, “Synthesis and Evaluation of Compound Targeting α7 and β2 Subunits in Nicotinic Acetylcholinergic Receptor” (Molecules, 2023).
pIC50, pKi: −log10 of the molar value. Read-outs that look alike come from different tables or passages of the source. Marks after values point to notes of the source that are not given here.

Key:
α4β2* nAChR [1] = target: T1, α4β2* nAChR (Rattus norvegicus, UniProt P09483+P12390); assay: [3H]cytisine competition binding on rat brain slices (autoradiography)
T1 construct: Horizontal brain slices, 10 µm thick from male Sprague Dawley rats; from tissue; host or cells: rat brain slices (male Sprague Dawley), several brain regions
Protocol: Our previously published procedures were used for [^3H]cytisine experiments. Horizontal brain slices, 10 µm thick from male Sprague Dawley rats, were preincubated in the buffer (50 mmol/L Tris HCl containing 120 mmol/L NaCl, 5 mmol/L KCl, 2.5 mmol/L CaCl2, 1 mmol/L MgCl2, pH 7.4) for 10 min. The pre-incubation buffer was then discarded and the slices were incubated with [^3H]cytisine (2.5 nM, specific activity of 32.7 Ci/mmol) at 2 °C for 75 min. […] After incubation, slices were washed twice (2 min each wash) with ice-cold Tris buffer, pH 7.4, followed by a quick rinse in cold (0–5 °C) deionized water. The slides were then air dried and the radiolabeled brain sections were apposed on storage phosphor screens for two weeks (Perkin Elmer Multisensitive, Medium MS, New Jersy, USA). For autoradiographic analysis, the apposed phosphor screens were read and analyzed by OptiQuant acquisition and analysis program of the Cyclone Storage Phosphor System (Packard Instruments Co., Boston, MA, USA). Regions of interest of same size were drawn and analyzed on brain regions using OptiQuant software version 2 and binding of [^3H]cytisine measured in DLU/mm^2. Data were analyzed using following procedure: (a) the non-specific binding of [^3H]cytisine was subtracted for all samples; (b) the specific binding was normalized to 100% (no competitive ligand); and (c) the binding isotherms were fit to the Hill equation (KELL BioSoft software (v 6), Cambridge, UK).

α7 nAChR [2] = target: T2, α7 nAChR (Rattus norvegicus, UniProt Q05941); assay: biochemical; assay type: binding
α4β2* nAChR [3] = target: T1, α4β2* nAChR; details: read-out: Binding affinity α4β2*; rat brain cortex labeled with 3H-epibatidine; cited from earlier work
α4β2* nAChR [4] = target: T1, α4β2* nAChR; assay type: binding
α4β2* nAChR [5] = target: T1, α4β2* nAChR; assay: Rat brain homogenates labeled with 3H-cytisine (literature); assay type: binding; details: α4β2 value from 3H-cytisine rat brain homogenates, α7 from rat cloned receptors
α7 nAChR [6] = target: T2, α7 nAChR; set-up: method as in PMID 28875553; details: rat cloned receptors labeled with α-[125I]BuTX; read-out: Binding affinity α7*; cited from earlier work
α4β2 nAChR [7] = target: α4β2 nAChR; set-up: method as in PMID 24050653; details: HEK293 cells transfected with α4β2 nAChRs; read-out: Binding affinity α4β2*; cited from earlier work
α7 nAChR [8] = target: α7 nAChR; set-up: method as in PMID 24050653; details: HEK293 cells transfected with α7 nAChRs; read-out: Binding affinity α7*; cited from earlier work
α7 nAChR [9] = assay: HEK293 cells transfected with α7 nAChRs (ASEM, literature); assay type: binding; details: from cited affinities
α7 nAChR [10] = assay: HEK293 membranes expressing α7 nAChRs (Iodo-ASEM, literature); assay type: binding; details: IodoASEM, from cited affinities
α4β2 nAChR [11] = target: α4β2 nAChR; set-up: method as in PMID 25687449; details: HEK293 membranes expressing α4β2 nAChRs; read-out: Binding affinity α4β2*; cited from earlier work
α7 nAChR [12] = target: α7 nAChR; set-up: method as in PMID 25687449; details: cited from earlier work
human α4β2 nAChR [13] = details: cited from earlier work
human α4β2 nAChR [14] = details: cytisine, from cited affinities
human α7 nAChR = details: read-out: Binding affinity α7*; human α7 nAChR in SH-SY5Y cells; cited from earlier work
α7 nAChR [15] = target: T2, α7 nAChR; set-up: method as in PMID 18445710; details: tested in rat; read-out: Binding affinity α7*; cited from earlier work
α7 nAChR [16] = target: T2, α7 nAChR; assay type: binding
α4β2* nAChR [17] = details: cited from earlier work
[18] = frontal cortex values taken from Table 1

c1ncc(N2CCN3CCC2CC3)cc1OCC1CCN1 [KS7, 3-(2-(S)-azetidinylmethoxy)-5-(1,4-diaza-bicyclo[3.2.2]nonane)pyridine]
pIC50 (α4β2* nAChR [1]; frontal cortex value taken from Table 1, read-out: Binding affinity α4β2*): 6.96 | α4β2/α7 Ratio (α4β2* nAChR [1]; [18]): 0.01 ^j | α7/α4β2 Ratio (α4β2* nAChR [1]; [18]): 91 ^j | pIC50 (α4β2* nAChR [1]; rat brain slices, Anterior Cingulate, read-out: Inhibition constants (IC50), [3H]Cytisine, α4β2* nAChRs): 7.31 | pIC50 (α4β2* nAChR [1]; rat brain slices, Frontal Cortex, read-out: Inhibition constants (IC50), [3H]Cytisine, α4β2* nAChRs): 6.96 | pIC50 (α4β2* nAChR [1]; rat brain slices, Striatum, read-out: Inhibition constants (IC50), [3H]Cytisine, α4β2* nAChRs): 7.06 | pIC50 (α4β2* nAChR [1]; rat brain slices, Subiculum, read-out: Inhibition constants (IC50), [3H]Cytisine, α4β2* nAChRs): 6.76 | pIC50 (α4β2* nAChR [1]; rat brain slices, Thalamus, read-out: Inhibition constants (IC50), [3H]Cytisine, α4β2* nAChRs): 6.87 | pIC50 (α4β2* nAChR [1]; rat brain, several brain regions (abstract), read-out: IC50 for [3H]cytisine radiolabeled sites): 6.76 to 7.30 | α7/α4β2 Ratio (α4β2* nAChR [1]; ratio of IC50 values, Anterior Cingulate): 254 | α7/α4β2 Ratio (α4β2* nAChR [1]; ratio of IC50 values, Frontal Cortex): 91 | pIC50 (α7 nAChR [2]; frontal cortex value taken from Table 1, read-out: Binding affinity α7*): 5.00 | pIC50 (α7 nAChR [2]; rat brain slices, Anterior Cingulate, read-out: Inhibition constants (IC50), [125I]α-BuTX, α7* nAChRs): 4.90 | pIC50 (α7 nAChR [2]; rat brain slices, Frontal Cortex, read-out: Inhibition constants (IC50), [125I]α-BuTX, α7* nAChRs): 5.00 | pIC50 (α7 nAChR [2]; rat brain slices, Hippocampus, read-out: Inhibition constants (IC50), [125I]α-BuTX, α7* nAChRs): 4.48 | pIC50 (α7 nAChR [2]; rat brain slices, Inferior Colliculus, read-out: Inhibition constants (IC50), [125I]α-BuTX, α7* nAChRs): 4.33

Fc1ncccc1OC[C@@H]1C=CCN1 [Nifene]
pKi (α4β2* nAChR [3]): 8.97 | α4β2/α7 Ratio (α4β2* nAChR [4]; listed as with α4β2 value from 3H-epibatidine rat cortex): 0.007 | α7/α4β2 Ratio (α4β2* nAChR [4]; α4β2 value from 3H-epibatidine rat cortex, α7 from rat cloned receptors): 158 | α7/α4β2 Ratio (α4β2* nAChR [5]): 338 | pKi (α7 nAChR [6]): 6.77

O=S1(=O)c2cc(N3CCN4CCC3CC4)ccc2-c2cccc(F)c21 [ASEM]
pKi (α4β2 nAChR [7]): 6.25 | pKi (α7 nAChR [8]): 9.43 | α7/α4β2 Ratio (α7 nAChR [9]): 0.0007

O=S1(=O)c2cc(N3CCN4CCC3CC4)ccc2-c2cccc(I)c21 [IodoASEM]
α7/α4β2 Ratio (α7 nAChR [10]): 0.0003 | pKi (α4β2 nAChR [11]): 5.77 | pKi (α7 nAChR [12]; HEK293 membranes expressing α7 nAChRs, read-out: Binding affinity α7*): 9.30 | α4β2/α7 Ratio (α7 nAChR [12]; HEK293 membranes): 3414 ^h

O=c1cccc2n1C[C@@H]1CNC[C@H]2C1 [Cytisine]
α7/α4β2 Ratio (human α4β2 nAChR [13]; heterologously expressed human receptors): 544 ^e | pKi (human α4β2 nAChR [13]; read-out: Binding affinity α4β2*, human α4β2 in HEK293 cells): 8.90 | α4β2/α7 Ratio (human α4β2 nAChR [14]): 0.002 | pKi (human α7 nAChR): 6.16

α-Iodobungarotoxin
pKi (α7 nAChR [15]): 9.30 | α4β2/α7 Ratio (α7 nAChR [16]): 2000 | α7/α4β2 Ratio (α7 nAChR [16]): 0.0005 | Binding affinity α4β2* (α4β2* nAChR [17]): >1000 ^f nM
